Laboratory results reported in patent US4302458A, “Phthalidyl-isoquinoline derivatives” (Laborec Laboratoire de Recherches Biologiques, priority 1979, dated 1981).

Legend:
histidine decarboxylase = experiment: Histidine decarboxylase activity of guinea-pig kidneys after in vivo administration; conditions: for Activity expressed in % inhibition of the enzyme: guinea-pig renal enzyme, sacrificed five hours after administration, vs control animals
Source text: The activity of the compound 458 L was compared with that of tritoqualine, which is, to the Applicants' knowledge, the only product used therapeutically for this objective. The technique for measuring the histadine decarboxylase activity of guinea-pig kidneys has been described by B. Kosmicki et al (J. Pharmacol. Paris 1974-5-3-331-342). The guinea-pigs were sacrificed five hours after administering the substances under investigation. The percentage reduction in the activity of the renal enzyme of the treated animals was determined with respect to control animals.

[1] = Acute toxicity (LD 50), oral route, mice; conditions: mouse, in vivo
Experimental: (§1) The toxicity was determined in the conventional manner.

mice = conditions: mouse, in vivo
Experimental: as §1

Row | SMILES | Activity expressed in % inhibition of the enzyme (histidine decarboxylase; dosage 10 mg/kg) | Activity expressed in % inhibition of the enzyme (histidine decarboxylase; dosage 20 mg/kg) | Activity expressed in % inhibition of the enzyme (histidine decarboxylase; dosage 40 mg/kg) | Activity expressed in % inhibition of the enzyme (histidine decarboxylase; dosage 60 mg/kg) | LD50 [1] | in vivo inhibition of histidine decarboxylase (in words) (histidine decarboxylase; in vivo) | chronic toxicity (tolerance) (mice)
1 | CCOc1c(N)c2c(c(OCC)c1OCC)C(C1c3c(cc4c(c3OC)OCO4)CCN1C)OC2=O (centres unmarked) [Tritoqualine, tritoqualine, reference compound] | 10% | 20% | 20% | 22% | – | – | –
2 | CCOc1c(N)c2c(c(OCC)c1OCC)C(C1c3c(cc(OC)c(OC)c3OC)CCN1C)OC2=O (centres unmarked) [458 L, 2-methyl-6,7,8-trimethoxy-1[4,5,6-triethoxy-7-amino-3-phthalidyl]-1,2,3,4-tetrahydro-isoquinoline] | 14% | 21% | 31% | 41% | ~6000 mg/kg | inhibiting in vivo the action of the enzyme histidine decarboxylase | well tolerated
